From US8114880B2, “Piperidine or piperazine substituted tetrahydro-naphthalene-1-carboxylic acid MTP inhibiting compounds” (Janssen Pharmaceutica N.V., priority 2006, dated 2012)

Legend:
HepG2 cells = assay: Quantification of the secretion of ApoB; format: cell-based; conditions: 24 hours of incubation; for IC50: Homo sapiens, HepG2, 24 h, pIC50 = -log IC50
Protocol: HepG2 cells were cultured in 24-well plates in MEM Rega 3 containing 10% fetal calf serum. At 70% confluency, the medium was changed and the test compound or carrier (DMSO, 0.4% final concentration) was added. After 24 hours of incubation, the medium was transferred to Eppendorf tubes and cleared by centrifugation. A sheep antibody directed against either apoB was added to the supernatant and the mixture was kept at 8° C. for 24 hours. Then, rabbit anti-sheep antibody was added and the immune complex was allowed to precipitate for 24 hours at 8° C. The immunoprecipitate was pelleted by centrifugation for 25 minutes at 1320 g and washed twice with a buffer containing 40 mM Mops, 40 mM NaH2PO4, 100 mM NaF, 0.2 mM DTT, 5 mM EDTA, 5 mM EGTA, 1% Triton-X-100, 0.5% sodium deoxycholate (DOC), 0.1% SDS, 0.2 μM leupeptin and 0.2 μM PMSF. Radioactivity in the pellet was quantified by liquid scintillation counting. The IC50 values are usually converted to pIC50 values (=−log IC50 value) for ease of use.

MTP = MTP (Homo sapiens, UniProt P55157); assay: MTP assay (triglyceride transfer from donor to acceptor vesicles); format: biochemical; conditions: MTP activity, percent triglyceride transfer from donor to acceptor vesicles, 37° C.
MTP, sequence (P55157 19-894, species assumed): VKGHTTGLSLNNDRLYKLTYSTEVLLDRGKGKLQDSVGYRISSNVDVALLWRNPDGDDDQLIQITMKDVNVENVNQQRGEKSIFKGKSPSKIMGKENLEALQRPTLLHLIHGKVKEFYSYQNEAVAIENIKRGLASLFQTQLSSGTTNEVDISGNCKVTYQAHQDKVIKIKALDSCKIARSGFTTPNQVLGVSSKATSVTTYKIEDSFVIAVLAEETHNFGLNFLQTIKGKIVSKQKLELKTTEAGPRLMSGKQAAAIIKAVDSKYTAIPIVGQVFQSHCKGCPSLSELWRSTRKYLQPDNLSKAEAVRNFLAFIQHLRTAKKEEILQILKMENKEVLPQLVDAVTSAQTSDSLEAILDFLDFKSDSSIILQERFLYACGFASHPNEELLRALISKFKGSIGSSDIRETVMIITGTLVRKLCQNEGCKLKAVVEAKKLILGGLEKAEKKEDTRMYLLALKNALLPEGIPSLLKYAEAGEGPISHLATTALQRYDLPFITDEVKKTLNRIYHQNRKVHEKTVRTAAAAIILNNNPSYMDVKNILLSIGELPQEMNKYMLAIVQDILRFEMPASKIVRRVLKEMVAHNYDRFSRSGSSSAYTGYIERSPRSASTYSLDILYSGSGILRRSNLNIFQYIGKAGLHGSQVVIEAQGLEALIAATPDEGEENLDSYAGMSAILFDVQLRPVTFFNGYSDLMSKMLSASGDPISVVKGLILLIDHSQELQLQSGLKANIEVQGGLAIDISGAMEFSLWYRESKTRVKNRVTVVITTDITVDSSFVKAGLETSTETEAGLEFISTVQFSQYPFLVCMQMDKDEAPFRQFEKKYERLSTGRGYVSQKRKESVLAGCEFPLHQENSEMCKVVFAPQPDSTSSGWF
MTP, sequence (P07237 18-508 partner, species assumed): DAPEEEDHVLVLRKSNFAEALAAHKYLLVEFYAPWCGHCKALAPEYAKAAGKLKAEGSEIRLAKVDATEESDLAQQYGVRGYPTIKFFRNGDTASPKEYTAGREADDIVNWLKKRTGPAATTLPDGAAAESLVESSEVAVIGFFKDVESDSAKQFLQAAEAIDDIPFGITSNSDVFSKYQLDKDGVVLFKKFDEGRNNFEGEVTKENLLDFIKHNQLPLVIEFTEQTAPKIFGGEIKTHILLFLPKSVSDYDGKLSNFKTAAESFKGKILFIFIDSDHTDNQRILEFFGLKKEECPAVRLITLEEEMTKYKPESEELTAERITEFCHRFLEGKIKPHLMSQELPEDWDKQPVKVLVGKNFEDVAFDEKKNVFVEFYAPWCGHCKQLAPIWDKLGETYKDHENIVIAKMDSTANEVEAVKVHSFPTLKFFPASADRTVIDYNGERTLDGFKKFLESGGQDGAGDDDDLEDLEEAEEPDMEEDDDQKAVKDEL
In short: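 Radiolabelled triglyceride transfer from donor vesicles (phosphatidylcholine, 7.5 mol % cardiolipin, 0.25 mol % glycerol tri[1-^14C]-oleate) to phosphatidylcholine acceptor vesicles with BSA, pH 7.5 Tris buffer; compounds in DMSO (0.13% final), 5 min preincubation at 37° C before MTP addition. Donor vesicles removed on DEAE-52; acceptor-supernatant ^14C counts give percent transfer.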

Row | SMILES | IC50 (HepG2 cells) [nM] | IC50 (MTP) [nM] | pIC50 (HepG2 cells; pIC50 = -log IC50, listed as 8)
1 | COc1ccccc1C(=O)NC1CCN(C(=O)[C@@H]2CC[C@](C(N)=O)(c3ccccc3)c3ccccc32)CC1 (single isomer, unassigned) [Co. No. 43] | 267 | 90.4 | 
2 | COc1ccccc1C(=O)NC1CCN(C(=O)[C@H]2CC[C@@](C(N)=O)(c3ccccc3)c3ccccc32)CC1 (single isomer, unassigned) [Co. No. 44] | 106 | > 1000 | 
3 | CCCNC(=O)C1(c2ccccc2)CCC(C(=O)N2CCC(NC(=O)c3ccccc3)CC2)c2ccccc21 (stereo not drawn) [Co. No. 4] | 228 | 42.4 | 
4 | CCNC(=O)[C@]1(c2ccccc2)CC[C@H](C(=O)N2CCC(NC(=O)c3ccccc3-c3ccc(C(F)(F)F)cc3)CC2)c2ccccc21 [Co. No. 11] | > 100 | 217 | 
5 | CCNC(=O)[C@]1(c2ccccc2)CC[C@@H](CN2CCC(NC(=O)c3ccccc3OC)CC2)c2ccccc21 [Co. No. 15] | 186 | 50.2 | 
6 | CCNC(=O)[C@]1(c2ccccc2)CC[C@@H](C(=O)N2CCC(NC(=O)c3ccccc3C)CC2)c2ccccc21 [Co. No. 22] | 155 | 28.9 | 
7 | CCNC(=O)[C@]1(c2ccccc2)CC[C@@H](C(=O)N2CC[C@@H](NC(=O)c3cc(Cl)c(N)cc3OC)[C@@H](OC)C2)c2ccccc21 [Co. No. 23] | 232 | 60.3 | 
8 | CCOC(=O)[C@]1(c2ccccc2)CC[C@@H](C(=O)N2CCC(NC(=O)c3cc(Cl)c(N)cc3OC)CC2)c2ccccc21 [Co. No. 24] | 202 | 54.8 | 
9 | CCOC(=O)[C@]1(c2ccccc2)CC[C@@H](C(=O)N2CCN(C(=O)c3ccccc3OC)CC2)c2ccccc21 [Co. No. 27] | 778 | 65.2 | 
10 | CCOC(=O)[C@]1(c2ccccc2)CC[C@@H](C(=O)N2CCN(C(=O)c3ccc(C)cc3-c3ccc(C(F)(F)F)cc3)CC2)c2ccccc21 [Co. No. 28] | 329 | > 100 | 
11 | CCOC(=O)[C@]1(c2ccccc2)CC[C@@H](C(=O)N2CCC(NC(=O)c3ccccc3)CC2)c2ccccc21 [Co. No. 33] | > 1000 | > 1000 | 
12 | CCOC(=O)[C@]1(c2ccccc2)CC[C@@H](C(=O)N2CCC(NC(=O)c3ccccc3OC)CC2)c2ccccc21 [Co. No. 35] | 5370 | 1710 | 

The next compounds have a lower IC50 (MTP) than those just listed; values first:

Row | IC50 (HepG2 cells) [nM] | IC50 (MTP) [nM] | pIC50 (HepG2 cells; pIC50 = -log IC50, listed as 8) | SMILES
13 | 80.5 | 17.7 |  | O=C(NC1CCN(C(=O)C2CCC(C(=O)NCc3ccccc3)(c3ccccc3)c3ccccc32)CC1)c1ccccc1 (stereo not drawn) [Co. No. 3]
14 | 20.4 | 16 |  | CCCNC(=O)C1(c2ccccc2)CCC(CN2CCC(NC(=O)c3ccccc3-c3ccc(C(F)(F)F)cc3)CC2)c2ccccc21 (stereo not drawn) [Co. No. 6]
15 |  | 2.82 | 8.188 | C=CCOC(=O)[C@]1(c2ccccc2)CC[C@@H](C(=O)N2CCC(NC(=O)c3ccccc3OC)CC2)c2ccccc21 [Co. No. 8]
16 | 1.85 | 1.96 |  | CCNC(=O)[C@]1(c2ccccc2)CC[C@@H](C(=O)N2CCC(NC(=O)c3ccccc3-c3ccc(C(F)(F)F)cc3)CC2)c2ccccc21 [Co. No. 10]
17 | 15 | 3.2 |  | CCNC(=O)[C@]1(c2ccccc2)CC[C@@H](CN2CCC(NC(=O)c3ccccc3-c3ccc(C(F)(F)F)cc3)CC2)c2ccccc21 [Co. No. 16]
18 | 7.57 | 4.63 |  | C=CCOC(=O)[C@]1(c2ccccc2)CC[C@@H](C(=O)N2CCC(NC(=O)c3ccccc3-c3ccc(C(F)(F)F)cc3)CC2)c2ccccc21 [Co. No. 19]
19 | 22.9 | 12.6 |  | CCNC(=O)[C@]1(c2ccccc2)CC[C@@H](C(=O)N2CC[C@@H](NC(=O)c3ccccc3OC)[C@@H](OC)C2)c2ccccc21 [Co. No. 20]
20 | 27.6 | 9.84 |  | CCNC(=O)[C@]1(c2ccccc2)CC[C@@H](C(=O)N2CCC(NC(=O)c3ccc(Cl)cc3OC)CC2)c2ccccc21 [Co. No. 21]
21 | 3.79 | 1.16 |  | CCOC(=O)[C@@]1(c2ccccc2)CC[C@H](C(=O)N2CCC(NC(=O)c3ccccc3OC)CC2)c2ccccc21 [Co. No. 34]
